Legend:
[1] = test system: gastric cancer cells SNU-16 with high expression of FGFR2; test: Cell proliferation inhibition, CellTiter-Glo, SNU-16; format: cell-based; conditions: Homo sapiens, 72 h, SNU-16, cultured for 3 days
Excerpt: The compounds of the present disclosure can target and inhibit FGFR and VEGFR pathways, and inhibit tumor cell growth by inhibiting VEGF/VEGFR and FGF/FGFR signaling pathways. In this experiment, human non-small cell lung cancer cells NCI-H1581 with high expression of FGFR1, gastric cancer cells SNU-16 with high expression of FGFR2, and human bladder cancer cells RT112/84 with high expression of FGFR3 were selected. In this experiment, the inhibitory effect of compounds on cell proliferation was investigated by detecting the effect of the compounds of the present disclosure on the cell viability in vitro in the tumor cell lines NCI-H1581, SNU-16 and RT-112/84.
Regular passage, and cells in logarithmic growth phase were taken for plating.
• (1) Cells were stained with trypan blue and viable cells were counted. • (2) The cell concentration was adjusted to an appropriate concentration.
• (3) 90 μL of cell suspension per well was added to a culture plate, and cell-free culture solution was added to the blank control well. • (4) The plate was cultured overnight in a 37° C., 5% CO2 incubator with 100% relative humidity.
• (1) Preparation of 10× compound working solution: 78 μL of cell culture medium was added to a V-bottom 96-well plate, and 2 μL of compound was pipetted from a 400× compound storage plate and added to the cell culture medium of the 96-well plate. […]

Ba/F3-TEL-VEGFR2 = test: In vitro proliferation of BaF3 cell line, Ba/F3-TEL-VEGFR2; format: cell-based; conditions: Ba/F3-TEL-VEGFR2, 72 h
Procedure: The mother solution was prepared into a total of 9 concentration gradients (10.0000 mM, 2.5000 mM, 0.6250 mM, 0.1563 mM, 0.0391 mM, 0.0098 mM, 0.0024 mM, 0.0006 mM and 0.0002 mM) in a 4-fold dilution and stored in a 96-well plate (Beaver, Suzhou), while the same volume of DMSO solvent was used as a negative control. • 1. Cell suspension in logarithmic growth phase was taken and inoculated in a white 96-well cell culture plate (Corning 3917, NY, USA) with a volume of 95 μL per well (2000 cells/well). • 2. Diluted medium-compound mixture was added in a volume of 5 μL per well, respectively, and the final concentration of DMSO in Ba/F3-TEL-FLT1 (VEGFR1), Ba/F3-TEL-FLT4 (VEGFR3) and Ba/F3-TEL-VEGFR2 cells was 0.1%.
• 3. The plate was incubated in a 37° C., 5% CO2 incubator for 72 h. • 4. The proliferation inhibitory activity and data analysis of the compound by CellTiter-Glo method were the same as in Experimental embodiment 1.

**Q.** How did the IC50 [1] turn out when `CS(=O)(=O)O.Cn1cc(-c2ccn3c(-c4cc(NS(C)(=O)=O)nc(-c5ccc(F)cc5F)c4)cnc3c2)cn1` was run?
**A.** The IC50 was 44.5 nM.

**Q.** What about the Maximum inhibition (Ba/F3-TEL-VEGFR2) of the same compound?
**A.** The Maximum inhibition was 99.99%.

**Q.** What about the Minimum inhibition (Ba/F3-TEL-VEGFR2) of the same compound?
**A.** The Minimum inhibition was 8.23%.

**Q.** What about the IC50 (Ba/F3-TEL-VEGFR2; Mus musculus, BaF3, read-out: Relative IC50) of the same compound?
**A.** The IC50 was ~9.7 nM.

— US20240409534A1, “CRYSTAL FORM OF METHYLPYRAZOLE-SUBSTITUTED PYRIDOIMIDAZOLE COMPOUND AND PREPARATION METHOD THEREFOR” (priority 2021, published 2024)
